System: Energy system protein genes
Test: DNA chip mRNA expression in yeast, energy system protein genes (Table 4)
Format: cell-based, Saccharomyces cerevisiae S288C
In short: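 First, S288C yeast grown in YPD at 25° C. are dosed in log phase with one toxicant (growth-inhibiting, not lethal) for 2 h. Next, total RNA is extracted and poly(A) mRNA isolated and reverse-transcribed with Cy3/Cy5-dUTP. Finally, whole-genome chip fluorescence is read relative to unexposed cells.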

`Oc1cc(Cl)c(Cl)cc1Cl` [(6), 2,4,5-trichlorophenol] was tested, and the “The level of expressed mRNA in the presence of chemical substance/The level of expressed mRNA in the absence of chemical substance” value (yeast gene YJR048W) was 0.5, the “The level of expressed mRNA in the presence of chemical substance/The level of expressed mRNA in the absence of chemical substance” value (yeast gene YJR121W, cells incubated two hours with the chemical substance) was 1.5 and the “The level of expressed mRNA in the presence of chemical substance/The level of expressed mRNA in the absence of chemical substance” value (yeast gene YJR155W) was 1.4. For the same compound, the “The level of expressed mRNA in the presence of chemical substance/The level of expressed mRNA in the absence of chemical substance” value (yeast gene YKL016C, cells incubated two hours with the chemical substance) was 0.8, the “The level of expressed mRNA in the presence of chemical substance/The level of expressed mRNA in the absence of chemical substance” value (yeast gene YKL035W) was 1.2 and the “The level of expressed mRNA in the presence of chemical substance/The level of expressed mRNA in the absence of chemical substance” value (yeast gene YKL060C, cells incubated two hours with the chemical substance) was 1.3. The “The level of expressed mRNA in the presence of chemical substance/The level of expressed mRNA in the absence of chemical substance” value (yeast gene YKL141W, cells incubated two hours with the chemical substance) was 1.2, the “The level of expressed mRNA in the presence of chemical substance/The level of expressed mRNA in the absence of chemical substance” value (yeast gene YKL148C, cells incubated two hours with the chemical substance) was 0.5 and the “The level of expressed mRNA in the presence of chemical substance/The level of expressed mRNA in the absence of chemical substance” value (yeast gene YKL152C) was 1.6. For the same compound, the “The level of expressed mRNA in the presence of chemical substance/The level of expressed mRNA in the absence of chemical substance” value (yeast gene YKR009C, cells incubated two hours with the chemical substance) was 1.8, the “The level of expressed mRNA in the presence of chemical substance/The level of expressed mRNA in the absence of chemical substance” value (yeast gene YKR058W, cells incubated two hours with the chemical substance, 25° C., YPD medium) was 1.4 and the “The level of expressed mRNA in the presence of chemical substance/The level of expressed mRNA in the absence of chemical substance” value (yeast gene YKR097W) was 1.7. For the same compound, the “The level of expressed mRNA in the presence of chemical substance/The level of expressed mRNA in the absence of chemical substance” value (yeast gene YLL041C, cells incubated two hours with the chemical substance) was 1.2, the “The level of expressed mRNA in the presence of chemical substance/The level of expressed mRNA in the absence of chemical substance” value (yeast gene YLR038C, cells incubated two hours with the chemical substance) was 1.2 and the “The level of expressed mRNA in the presence of chemical substance/The level of expressed mRNA in the absence of chemical substance” value (yeast gene YLR044C, cells incubated two hours with the chemical substance) was 1.5. For the same compound, the “The level of expressed mRNA in the presence of chemical substance/The level of expressed mRNA in the absence of chemical substance” value (yeast gene YLR134W, cells incubated two hours with the chemical substance) was 2.5, the “The level of expressed mRNA in the presence of chemical substance/The level of expressed mRNA in the absence of chemical substance” value (yeast gene YLR258W, cells incubated two hours with the chemical substance) was 1.8 and the “The level of expressed mRNA in the presence of chemical substance/The level of expressed mRNA in the absence of chemical substance” value (yeast gene YLR284C, cells incubated two hours with the chemical substance) was 0.9. The “The level of expressed mRNA in the presence of chemical substance/The level of expressed mRNA in the absence of chemical substance” value (yeast gene YLR295C, cells incubated two hours with the chemical substance, 25° C., YPD medium) was 1.1, the “The level of expressed mRNA in the presence of chemical substance/The level of expressed mRNA in the absence of chemical substance” value (yeast gene YLR304C, cells incubated two hours with the chemical substance) was 1.9 and the “The level of expressed mRNA in the presence of chemical substance/The level of expressed mRNA in the absence of chemical substance” value (yeast gene YLR345W) was 1.6. The “The level of expressed mRNA in the presence of chemical substance/The level of expressed mRNA in the absence of chemical substance” value (yeast gene YLR354C, cells incubated two hours with the chemical substance) was 1.5, the “The level of expressed mRNA in the presence of chemical substance/The level of expressed mRNA in the absence of chemical substance” value (yeast gene YLR377C, cells incubated two hours with the chemical substance) was 0.7 and the “The level of expressed mRNA in the presence of chemical substance/The level of expressed mRNA in the absence of chemical substance” value (yeast gene YLR395C, cells incubated two hours with the chemical substance) was 0.4. For the same compound, the “The level of expressed mRNA in the presence of chemical substance/The level of expressed mRNA in the absence of chemical substance” value (yeast gene YML054C) was 1.8, the “The level of expressed mRNA in the presence of chemical substance/The level of expressed mRNA in the absence of chemical substance” value (yeast gene YML087C) was 0.9 and the “The level of expressed mRNA in the presence of chemical substance/The level of expressed mRNA in the absence of chemical substance” value (yeast gene YML100W) was 2.8. The “The level of expressed mRNA in the presence of chemical substance/The level of expressed mRNA in the absence of chemical substance” value (yeast gene YML120C, cells incubated two hours with the chemical substance) was 0.6, the “The level of expressed mRNA in the presence of chemical substance/The level of expressed mRNA in the absence of chemical substance” value (yeast gene YML125C) was 1.3 and the “The level of expressed mRNA in the presence of chemical substance/The level of expressed mRNA in the absence of chemical substance” value (yeast gene YML129C, cells incubated two hours with the chemical substance) was 1.7. For the same compound, the “The level of expressed mRNA in the presence of chemical substance/The level of expressed mRNA in the absence of chemical substance” value (yeast gene YMR073C, cells incubated two hours with the chemical substance) was 0.9, the “The level of expressed mRNA in the presence of chemical substance/The level of expressed mRNA in the absence of chemical substance” value (yeast gene YMR089C) was 1.2 and the “The level of expressed mRNA in the presence of chemical substance/The level of expressed mRNA in the absence of chemical substance” value (yeast gene YMR105C) was 2.8. The “The level of expressed mRNA in the presence of chemical substance/The level of expressed mRNA in the absence of chemical substance” value (yeast gene YMR118C) was 2.0, the “The level of expressed mRNA in the presence of chemical substance/The level of expressed mRNA in the absence of chemical substance” value (yeast gene YMR205C, cells incubated two hours with the chemical substance) was 1.2 and the “The level of expressed mRNA in the presence of chemical substance/The level of expressed mRNA in the absence of chemical substance” value (yeast gene YMR261C, cells incubated two hours with the chemical substance) was 0.6. The “The level of expressed mRNA in the presence of chemical substance/The level of expressed mRNA in the absence of chemical substance” value (yeast gene YMR267W, cells incubated two hours with the chemical substance, 25° C., YPD medium) was 1.4, the “The level of expressed mRNA in the presence of chemical substance/The level of expressed mRNA in the absence of chemical substance” value (yeast gene YMR323W, cells incubated two hours with the chemical substance) was 0.4 and the “The level of expressed mRNA in the presence of chemical substance/The level of expressed mRNA in the absence of chemical substance” value (yeast gene YNL071W) was 1.3. The “The level of expressed mRNA in the presence of chemical substance/The level of expressed mRNA in the absence of chemical substance” value (yeast gene YNL202W, cells incubated two hours with the chemical substance) was 2.0, the “The level of expressed mRNA in the presence of chemical substance/The level of expressed mRNA in the absence of chemical substance” value (yeast gene YNL237W) was 4.6 and the “The level of expressed mRNA in the presence of chemical substance/The level of expressed mRNA in the absence of chemical substance” value (yeast gene YNL241C) was 0.9. For the same compound, the “The level of expressed mRNA in the presence of chemical substance/The level of expressed mRNA in the absence of chemical substance” value (yeast gene YNL331C) was 1.8, the “The level of expressed mRNA in the presence of chemical substance/The level of expressed mRNA in the absence of chemical substance” value (yeast gene YOL086C, cells incubated two hours with the chemical substance) was 1.7 and the “The level of expressed mRNA in the presence of chemical substance/The level of expressed mRNA in the absence of chemical substance” value (yeast gene YOL165C) was 1.7. For the same compound, the “The level of expressed mRNA in the presence of chemical substance/The level of expressed mRNA in the absence of chemical substance” value (yeast gene YOR142W, cells incubated two hours with the chemical substance) was 1.6, the “The level of expressed mRNA in the presence of chemical substance/The level of expressed mRNA in the absence of chemical substance” value (yeast gene YOR178C, cells incubated two hours with the chemical substance) was 2.7 and the “The level of expressed mRNA in the presence of chemical substance/The level of expressed mRNA in the absence of chemical substance” value (yeast gene YOR388C, cells incubated two hours with the chemical substance) was 1.4. For the same compound, the “The level of expressed mRNA in the presence of chemical substance/The level of expressed mRNA in the absence of chemical substance” value (yeast gene YPL031C, cells incubated two hours with the chemical substance) was 1.8, the “The level of expressed mRNA in the presence of chemical substance/The level of expressed mRNA in the absence of chemical substance” value (yeast gene YPL061W, cells incubated two hours with the chemical substance) was 1.7 and the “The level of expressed mRNA in the presence of chemical substance/The level of expressed mRNA in the absence of chemical substance” value (yeast gene YPL088W) was 7.1. For the same compound, the “The level of expressed mRNA in the presence of chemical substance/The level of expressed mRNA in the absence of chemical substance” value (yeast gene YPL171C) was 1.3, the “The level of expressed mRNA in the presence of chemical substance/The level of expressed mRNA in the absence of chemical substance” value (yeast gene YPL240C) was 1.2 and the “The level of expressed mRNA in the presence of chemical substance/The level of expressed mRNA in the absence of chemical substance” value (yeast gene YPL262W, cells incubated two hours with the chemical substance) was 1.6. The “The level of expressed mRNA in the presence of chemical substance/The level of expressed mRNA in the absence of chemical substance” value (yeast gene YPL275W, cells incubated two hours with the chemical substance) was 1.0, the “The level of expressed mRNA in the presence of chemical substance/The level of expressed mRNA in the absence of chemical substance” value (yeast gene YPL276W, cells incubated two hours with the chemical substance) was 1.1 and the “The level of expressed mRNA in the presence of chemical substance/The level of expressed mRNA in the absence of chemical substance” value (yeast gene YPR048W, cells incubated two hours with the chemical substance) was 0.6. The “The level of expressed mRNA in the presence of chemical substance/The level of expressed mRNA in the absence of chemical substance” value (yeast gene YPR184W, cells incubated two hours with the chemical substance) was 1.5.

From patent US8192962B2, “Processes for detecting toxic substances” (Daikin Industries, Ltd., priority 2001, dated 2012)
